The text below walks through data of patent US9346762B2, “Pyrazole derivatives and their use as LPAR5 antagonists” (SANOFI, priority 2012, dated 2016).

Broadly, the IC50 is the midpoint of a concentration-inhibition curve.

SMILES strings stand for the structures.

Format in all cases: cell-based
For assay [1], the system named is human mast cell line HMC-1 (LPA receptor LPAR5). Nature of the assay: FLIPR assay, intracellular Ca2+ release in human mast cell line HMC-1. Conditions: HMC1, LPA-stimulated Ca2+ release, HMC-1 cells, compound added 10 minutes prior to LPA. An excerpt:
(§1) B) Use of the Fluorometric Imaging Plate Reader (FLIPR) Assay for the Determination of Intracellular Ca^2+ Release in Human Mast Cell Line HMC-1 and the Murine Microglia cell line BV-2
(§2) The ability of the compounds of the formula Ito inhibit or bind the LPA receptor LPAR5 can be assessed by determining the intracellular Ca^2+ release in human or animal cells. For the analysis of activating potential of LPA and the inhibitory effects of compounds of the formula I two cell lines were used with high LPAR5 expression, the human mast cell line HMC-1 and the murine microglia cell line BV-2 (FIGS. 1 and 2). For the FLIPR assay using human mast cells in a 96-well-format, HMC-1 suspension cells from flask culture were harvested, resuspended and counted. 14×10^6 HMC-1 cells were transferred into a new 50 ml tube, centrifuged for 3 minutes at 540×g. The resulting cell pellet at the bottom of the tube was resuspended with 15 ml loading buffer (loading buffer contained HBSS buffer (pH 7.4), 0.1% BSA (bovine serum albumin), 2 μM FLUO-4 dye; HBSS buffer (pH 7.4) contained 1×HBSS, 20 mM HEPES, 0.01% Pluronic F-127, 2.5 mM Probenicid).
Cells in loading buffer were incubated for 45-60 minutes at 37° C. After incubation cells were centrifuged for 3 minutes at 540×g and resuspended with 21 ml of HBSS buffer (pH 7.4). Each well of a poly-D-lysine coated 96-well-plate was filled with 150 μl cell solution, an equivalent of 100 000 cells/well. The 96-well-plate was centifuged for 2 minutes at 100×g (without brake) prior a recovery time of 30 minutes at 37° C. After this procedure cells were stimulated with LPA (in HBSS pH 7.4 and 0.1% BSA) to determine the EC50 of LPA in HMC-1 cells. For the determination of the inhibitory effect of compounds of the formula I, test compounds were added to the cells in the 96-well-plate 10 minutes prior the addition of LPA. Results of the assay are expressed as % activation, and are calculated using maximum peak of activation (Amax). The IC50 data of the above described FLIPR assay using human mast cell line HMC-1 for exemplary compounds of the present invention are shown in Table 2. Adherent BV-2 cells were seeded onto poly-D-lysine coated 96-well-plates (100000 cells/well) the day before performing the FLIPR assay. The density of the cells in the 96-well-plate at the day of the FLIPR assay should be 90%. After aspiration of the culture media, BV-2 cells were incubated for 30 minutes at 37° C. with loading buffer and recovered in 150 μl HBSS buffer for 30 minutes at 37° C. After this procedure cells were stimulated with LPA (in HBSS pH 7.4 and 0.1% BSA) to determine the EC50 of LPA in BV-2 cells. For the determination of the inhibitory effect of compounds of the formula I, test compounds were added to the cells in the 96-well-plate 10 minutes prior the addition of LPA. The IC50 data of the above described FLIPR assay using the murine microglia cell line BV-2 for exemplary compounds of the present invention are shown in Table 3.

For assay [2], the system named is washed human blood platelets (platelet LPA receptor LPAR5). Nature of the assay: Aggregation assay for washed human blood platelets (LPA-induced). The note with it: reduction of maximal LPA-induced aggregation, 5 min preincubation at 37° C. The method, then:
A) Aggregation Assay for Washed Human Blood Platelets (Thrombocytes)
Whole blood was collected from healthy volunteers using 3×20 ml syringes containing each 1/10 volume of buffered citrate. The anticoagulated whole blood was transferred into 50 ml polypropylene conical tubes (30 ml per tube). The tubes were centrifuged for 10 minutes at 150×g at room temperature without using the centrifuge brake. This procedure results in a lower phase of cellular components and a supernatant (upper phase) of platelet rich plasma (PRP). The PRP phase was collected from each tube and pooled for each donor. To avoid carry over of cellular components following first centrifugation, approximately 5 ml of PRP was left in the tube. The platelet concentration was determined using a ABX Micros 60 counter. The PRP phase was transferred to a new 50 ml tube. After 10 minutes standing at room temperature, 1 μl PGI2 (1 mM in Tris-HCl/pH 8.8) and 180 μl ACD/A were added per ml PRP. The PRP was then transferred to new 10 ml tube and centrifuged for 10 minutes at 500×g. After centrifugation a cellular pellet is visible at the bottom of the tube. The supernatant was carefully discarded and the cellular pellet, consisting of human blood platelets was then dissolved in 10 ml buffer T (buffer T composition: 145 mM NaCl, 5 mM KCl, 0.1 mM MgCl2×6 H2O, 15 mM HEPES, 5.5 mM glucose, pH 7.4). Platelet concentration in this solution was determined and buffer T was added to obtain a final concentration of 3.5×10^5 platelets per ml.
After 10 minutes at room temperature, 1 μl PGI2 per ml platelet solution was added and distributed into new 10 ml tubes. After a centrifugation step, 10 minutes at 500×g, supernatant was discarded and the platelets were resuspended in buffer T to a final concentration of 3.5×10^5 platelets per ml buffer T. Before use, platelet-containing buffer equilibrated for 30 minutes at room temperature. The human platelet aggregation assay was performed in single use cuvettes using the Platelet Aggregation Profiler® (PAP-4 or -8E, BIO/DATA Corporation). For a single experiment, 320 μl of platelet solution were transferred into an assay cuvette, 20 μl of calcium citrate solution (10 mM in H2O) and 20 μl of fibrinogen solution (20 mg/ml H2O) were added. The aggregation assay was performed in the assay cuvette at 37° C. and with 1.200 rpm stirring. To determine the EC50, eight assay cuvettes were loaded as described above with different concentrations of LPA. Aggregation was measured over 6 minutes at 37° C. with 1200 rpm (revolutions per minute) stirring. Results of the assay are expressed as % activation, and are calculated using maximum aggregation (Tmax) or area under curve (AUC) of the absorbance over 6 minutes. The inhibitory effect (IC50) of the test compounds was determined as the reduction of the maximal aggregation. Test compound was added prior starting the experiment with an incubation time of the test compound of 5 minutes at 37° C. with 1200 rpm stirring. The IC50 data of the above described platelet aggregation assay using human washed platelets for exemplary compounds of the present invention are shown in Table 1.

Assay [3] concerns murine microglia cell line BV-2 (LPA receptor LPAR5). Kind of assay: FLIPR assay, intracellular Ca2+ release in murine microglia cell line BV-2. Conditions: Mus musculus; LPA-stimulated Ca2+ release, BV-2 cells, compound added 10 minutes prior to LPA.
Excerpt: as §1, §2
Cells in loading buffer were incubated for 45-60 minutes at 37° C. […] Results of the assay are expressed as % activation, and are calculated using maximum peak of activation (Amax). […]

In assay [1], `Cc1c(COC(C)(C)C(=O)O)nn(-c2ccc(Cl)cc2Cl)c1-c1ccc(Cl)cc1` [Example 1, 2-[5-(4-Chloro-phenyl)-1-(2,4-dichloro-phenyl)-4-methyl-1H-pyrazol-3-ylmethoxy]-2-methyl-propionic acid] had an IC50 of 8.3 µM.

Consider `Cc1c(COC(C)C(=O)Nc2ccc(C(=O)O)cc2)nn(-c2ccccc2Cl)c1-c1ccc(C(F)(F)F)cc1` (stereo not shown) [Example 20, 4-{2-[1-(2-Chloro-phenyl)-4-methyl-5-(4-trifluoromethyl-phenyl)-1H-pyrazol-3-ylmethoxy]-propionylamino}-benzoic acid], for which, in assay [1], 5.2 µM corresponded to half-maximal inhibition (IC50).

In assay [1], `Cc1c(COC2(C(=O)O)CCCC2)nn(-c2ccc(Cl)cc2Cl)c1-c1ccc(Cl)cc1` [Example 3, 1-[5-(4-Chloro-phenyl)-1-(2,4-dichloro-phenyl)-4-methyl-1H-pyrazol-3-ylmethoxy]-cyclopentanecarboxylic acid] gave an IC50 of 8.8 µM.

Regarding `Cc1c(COC(C)(C)C(=O)NCc2ccc(C(=O)O)cc2)nn(-c2ccccc2Cl)c1-c1ccc(C(F)(F)F)cc1` [Example 13, 4-({2-[1-(2-Chloro-phenyl)-4-methyl-5-(4-trifluoromethyl-phenyl)-1H-pyrazol-3-ylmethoxy]-2-methyl-propionylamino}-methyl)-benzoic acid], the IC50 in assay [1] was 1.3 µM.

As to `Cc1c(COCC(=O)NCc2ccc(C(=O)O)cc2)nn(-c2ccc(Cl)cc2Cl)c1-c1ccc(Cl)cc1` [Example 11, 4-({2-[5-(4-Chloro-phenyl)-1-(2,4-dichloro-phenyl)-4-methyl-1H-pyrazol-3-ylmethoxy]-acetylamino}-methyl)-benzoic acid], the IC50 in assay [1] was found to be 8.6 µM.

On to `CCC(OCc1nn(-c2ccc(Cl)cc2Cl)c(-c2ccc(Cl)cc2)c1C)C(=O)NCc1ccc(C(=O)O)cc1` (stereo not shown) [Example 12, 4-({2-[5-(4-Chloro-phenyl)-1-(2,4-dichloro-phenyl)-4-methyl-1H-pyrazol-3-ylmethoxy]-butyrylamino}-methyl)-benzoic acid], for which the IC50 in assay [2] turned out to be 4.3 µM; in assay [1], 6.3 µM.

Consider `CCC(OCc1nn(-c2ccc(Cl)cc2Cl)c(-c2ccc(Cl)cc2)c1C)C(=O)O` (stereo not shown) [Example 7, 2-[5-(4-Chloro-phenyl)-1-(2,4-dichloro-phenyl)-4-methyl-1H-pyrazol-3-ylmethoxy]-butyric acid], for which the IC50 in assay [2] is 4.7 µM; in assay [1] it was 11.4 µM.

In assay [1], `CC(OCc1cn(-c2ccccc2)nc1-c1ccccc1)C(=O)Nc1ccc(C(=O)O)cc1` (stereo not shown) [Example 22, 4-[2-(1,3-Diphenyl-1H-pyrazol-4-ylmethoxy)-propionylamino]-benzoic acid] registered an IC50 of 16 µM.

Take `Cc1c(COC(C)C(=O)NCc2ccc(C(=O)O)cc2)nn(-c2ccc(Cl)cc2Cl)c1-c1ccc(Cl)cc1` (stereo not shown) [Example 15, 4-({2-[5-(4-Chloro-phenyl)-1-(2,4-dichloro-phenyl)-4-methyl-1H-pyrazol-3-ylmethoxy]-propionylamino}-methyl)-benzoic acid]: the IC50 in assay [2] was 6.5 µM; in assay [1], 8.8 µM.

`Cc1c(COC(C)(C)C(=O)NCc2ccc(C(=O)O)cc2)nn(-c2ccc(Cl)cc2)c1-c1ccc(C(F)(F)F)cc1` [Example 14, 4-({2-[1-(4-Chloro-phenyl)-4-methyl-5-(4-trifluoromethyl-phenyl)-1H-pyrazol-3-ylmethoxy]-2-methyl-propionylamino}-methyl)-benzoic acid] returned an IC50 in assay [1] of 3.4 µM. In other words, the single-digit micromolar range.

For `Cc1c(COC(C)C(=O)O)nn(-c2ccc(Cl)cc2Cl)c1-c1ccc(Cl)cc1` (stereo not shown) [Example 8, 2-[5-(4-Chloro-phenyl)-1-(2,4-dichloro-phenyl)-4-methyl-1H-pyrazol-3-ylmethoxy]-propionic acid], the IC50 in assay [2] was determined as 4.1 µM; in assay [1], 6.3 µM.

As for `Cc1c(COC(C)(C)C(=O)NCc2ccc(C(=O)O)cc2)nn(-c2ccc(Cl)cc2Cl)c1-c1ccc(C(F)(F)F)cc1` [Example 10, 4-({2-[1-(2,4-Dichloro-phenyl)-4-methyl-5-(4-trifluoromethyl-phenyl)-1H-pyrazol-3-ylmethoxy]-2-methyl-propionylamino}-methyl)-benzoic acid], the IC50 worked out at 0.2 µM in assay [3] and 0.03 µM in assay [1].

For `Cc1c(COC(C)C(=O)Nc2ccc(C(=O)O)cc2)nn(-c2ccc(Cl)cc2)c1-c1ccc(C(F)(F)F)cc1` (stereo not shown) [Example 18, 4-{2-[1-(4-Chloro-phenyl)-4-methyl-5-(4-trifluoromethyl-phenyl)-1H-pyrazol-3-ylmethoxy]-propionylamino}-benzoic acid], half-maximal inhibition in assay [1] (IC50) was put at 3.8 µM.

Turning to `Cc1c(COC(C(=O)Nc2ccc(C(=O)O)cc2)C(C)C)nn(-c2ccc(Cl)cc2Cl)c1-c1ccc(Cl)cc1` (stereo not shown) [Example 17, 4-{2-[5-(4-Chloro-phenyl)-1-(2,4-dichloro-phenyl)-4-methyl-1H-pyrazol-3-ylmethoxy]-3-methyl-butyrylamino}-benzoic acid], the IC50 was 15.9 µM in assay [2] and 4.2 µM in assay [1].

In assay [1], `Cc1c(COC(C)C(=O)Nc2ccc(C(=O)O)cc2)nn(-c2ccc(Cl)cc2Cl)c1-c1ccc(C(F)(F)F)cc1` (stereo not shown) [Example 16, 4-{2-[1-(2,4-Dichloro-phenyl)-4-methyl-5-(4-trifluoromethyl-phenyl)-1H-pyrazol-3-ylmethoxy]-propionylamino}-benzoic acid] had a half-maximal inhibitory concentration (IC50) of 4.1 µM.

Regarding `Cc1c(COC(C)(C)C(=O)O)nn(-c2ccc(Cl)cc2Cl)c1-c1ccc(C(F)(F)F)cc1` [Example 4, 2-[1-(2,4-Dichloro-phenyl)-4-methyl-5-(4-trifluoromethyl-phenyl)-1H-pyrazol-3-ylmethoxy]-2-methyl-propionic acid], the IC50 in assay [1] was found to be 6.6 µM.
